Laboratory results taken from patent US20240116985A1, “STAPLED PEPTIDES AND METHODS THEREOF” (priority 2020, published 2024).
Where two headings read alike, the source gives them in different places.

Columns and labels:
[1] = molecular target: T1, full-length beta-Catenin (Uniprot ID P35222) (Homo sapiens, UniProt P35222); assay: Fluorescence polarization IC50 (beta-catenin / 5FAM-TCF4 10-53 competition); format: binding; conditions: fluorescence polarization; read-out: beta-Catenin FP IC50
T1 construct: 10 nM full-length beta-Catenin (Uniprot ID P35222)
T1 sequence (P35222 1-781): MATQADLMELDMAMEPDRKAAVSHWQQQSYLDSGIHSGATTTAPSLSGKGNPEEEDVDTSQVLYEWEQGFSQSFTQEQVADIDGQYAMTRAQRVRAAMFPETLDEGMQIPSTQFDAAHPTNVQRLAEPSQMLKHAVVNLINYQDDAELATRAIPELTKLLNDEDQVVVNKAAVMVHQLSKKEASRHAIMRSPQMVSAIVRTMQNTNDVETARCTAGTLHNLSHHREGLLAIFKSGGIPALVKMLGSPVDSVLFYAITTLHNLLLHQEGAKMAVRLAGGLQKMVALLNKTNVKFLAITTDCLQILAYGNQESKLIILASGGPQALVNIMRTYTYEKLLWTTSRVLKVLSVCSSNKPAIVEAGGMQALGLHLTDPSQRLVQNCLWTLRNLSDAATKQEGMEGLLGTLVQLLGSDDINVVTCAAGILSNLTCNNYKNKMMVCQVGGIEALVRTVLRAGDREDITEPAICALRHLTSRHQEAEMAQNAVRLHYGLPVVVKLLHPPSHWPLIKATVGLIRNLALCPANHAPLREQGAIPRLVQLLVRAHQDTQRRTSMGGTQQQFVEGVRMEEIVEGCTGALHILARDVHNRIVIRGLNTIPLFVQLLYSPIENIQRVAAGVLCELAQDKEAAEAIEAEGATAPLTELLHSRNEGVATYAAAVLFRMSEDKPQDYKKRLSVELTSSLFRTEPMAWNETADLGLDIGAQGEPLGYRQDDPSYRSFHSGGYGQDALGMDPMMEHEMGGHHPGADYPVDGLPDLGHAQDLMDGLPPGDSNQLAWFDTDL

[2] = molecular target: T2, beta-catenin/TCF4 engagement (Homo sapiens, UniProt P35222); assay: Nano-BRET target engagement assay (B-cat-Halo & TCF4-Luc in HEK293 cells); format: cell-based; conditions: read-out: NanoBRET Abs IC50
T2 construct: expressed in transfected cells; host or cells: HEK293
T2 sequence (P35222 1-781): T1 sequence (P35222 1-781)

Row | SMILES | IC50 [1] | IC50 ([2]; absolute IC50) | IC50 [2]
1 | CC(=O)N1CCC[C@]12CC=CCCCC1(CCCC=CCCCOC(=O)N3CC[C@@](C(=O)N[C@@H](Cc4ccccc4Cl)C(=O)N[C@@H](Cc4csc5ccccc45)C(=O)N[C@@H](CCC(N)=O)C(N)=O)(C3)NC(=O)[C@H]([C@@H](C)O)NC(=O)[C@H](Cc3ccccc3)NC(=O)CNC(=O)C(C)(C)NC(=O)[C@H](CN(CC(=O)O)CC(F)(F)F)NC(=O)[C@H](CC(=O)O)NC1=O)NC(=O)[C@H](CC(C)(C)C)NC(=O)[C@H](CC(=O)O)NC2=O (stereo partly drawn) [I-1696, Ac-PL3-Asp-Npg-B5-Asp-TfeGA-Aib-Gly-Phe-Thr-PyrS2-2C1F-BztA-Gln-NH2] | 32 nM | 35500 nM | –
2 | CC(=O)N1CCC[C@]12CC=CCCCC1(CCCC=CCCCOC(=O)N3CC[C@@](C(=O)N[C@@H](Cc4ccsc4)C(=O)N[C@@H](Cc4csc5ccccc45)C(=O)N[C@@H](CCC(N)=O)C(N)=O)(C3)NC(=O)[C@H](CC(C)C)NC(=O)[C@H](Cc3ccccc3)NC(=O)[C@H](C)NC(=O)[C@H](C)NC(=O)[C@H](CCC(=O)OCCSSc3ccccn3)NC(=O)[C@H](CC(=O)O)NC1=O)NC(=O)[C@H](CC(C)(C)C)NC(=O)[C@H](CC(=O)O)NC2=O (stereo partly drawn) [I-1951, Ac-PL3-Asp-Npg-B5-Asp-[EtSSpy]GluE-Ala-Ala-Phe-Leu-PyrS2-3Thi-BztA-Gln-NH2] | 264 nM | – | > 20000 nM
3 | CC(=O)N1CCC[C@]12CC=CCCCC1(CCCC=CCCCOC(=O)N3CC[C@@](C(=O)N[C@@H](Cc4ccccc4C(F)(F)F)C(=O)N[C@@H](Cc4csc5ccccc45)C(=O)N[C@@H](C)C(N)=O)(C3)NC(=O)[C@H](CC(C)C)NC(=O)[C@H](Cc3ccccc3)NC(=O)[C@H](C)NC(=O)[C@H](CO)NC(=O)[C@H](Cc3cccc(C(=O)O)c3)NC(=O)[C@H](CC(=O)O)NC1=O)NC(=O)[C@H](CC(C)(C)C)NC(=O)[C@H](CC(=O)O)NC2=O (stereo partly drawn) [I-2059, Ac-PL3-Asp-Npg-B5-Asp-3COOHF-Ser-Ala-Phe-Leu-PyrS2-2F3MeF-BztA-Ala-NH2] | 38 nM | – | 4800 nM
4 | CC(=O)N1CCC[C@]12CC=CCCCC1(CCCC=CCCCOC(=O)N3CC[C@@](C(=O)N[C@@H](Cc4ccccc4)C(=O)N[C@@H](Cc4csc5ccccc45)C(=O)N[C@@H](CCO)C(N)=O)(C3)NC(=O)[C@H](CC(N)=O)NC(=O)[C@H](Cc3ccccc3)NC(=O)[C@H](C)NC(=O)[C@H](CCC(N)=O)NC(=O)[C@H](CCC(N)=O)NC(=O)[C@H](CC(=O)O)NC1=O)NC(=O)[C@H](CC1CCCCC1)NC(=O)[C@H](CC(N)=O)NC2=O (stereo partly drawn) [I-2067, Ac-PL3-Asn-Cha-B5-Asp-Gln-Gln-Ala-Phe-Asn-PyrS2-Phe-BztA-Hse-NH2] | 180 nM | – | > 20000 nM
5 | CC(=O)N1CCC[C@]12CC=CCCCC1(CCCC=CCCCCCC[C@@](C)(C(=O)N[C@@H](Cc3ccccc3)C(=O)N[C@@H](Cc3csc4ccccc34)C(=O)N[C@@H](CCC(N)=O)C(N)=O)NC(=O)[C@H](CC(C)C)NC(=O)[C@H](Cc3ccccc3)NC(=O)[C@H](C)NC(=O)[C@H](C)NC(=O)[C@H](CCC(=O)O)NC(=O)[C@H](CC(=O)O)NC1=O)NC(=O)[C@H](CCCCN)NC(=O)[C@H](CC(=O)O)NC2=O (stereo partly drawn) [I-1553, Ac-PL3-Asp-Lys-B5-Asp-Glu-Ala-Ala-Phe-Leu-S8-Phe-BztA-Gln-NH2] | 133 nM | > 20000 nM | –
6 | CC(=O)N1CCC[C@]12CC=CCCCC1(CCCC=CCCCOC(=O)N3CC[C@@](C(=O)N[C@@H](Cc4ccccc4Cl)C(=O)N[C@@H](Cc4csc5ccccc45)C(=O)N[C@@H](CCC(N)=O)C(=O)N[C@H](CO)Cc4ccccc4)(C3)NC(=O)[C@H](CC(C)C)NC(=O)[C@H](Cc3ccccc3)NC(=O)[C@H](C)NC(=O)[C@H](C)NC(=O)[C@H](Cc3cccc(C(=O)O)c3)NC(=O)[C@H](CC(=O)O)NC1=O)NC(=O)[C@H](CC(C)(C)C)NC(=O)[C@H](CC(=O)O)NC2=O (stereo partly drawn) [I-1674, Ac-PL3-Asp-Npg-B5-Asp-3COOHF-Ala-Ala-Phe-Leu-PyrS2-2C1F-BztA-Gln-] | 147 nM | 18300 nM | –
7 | CC(=O)N1CCC[C@]12CC=CCCCC1(CCCC=CCCCOC(=O)N3CC[C@@](C(=O)N[C@@H](Cc4ccsc4)C(=O)N[C@@H](Cc4csc5ccccc45)C(=O)N[C@@H](CCC(N)=O)C(N)=O)(C3)NC(=O)[C@H](CC(C)C)NC(=O)[C@H](Cc3ccccc3)NC(=O)[C@H](C)NC(=O)[C@H](CC(=O)N3CCN(C)CC3)NC(=O)[C@H](CC(=O)O)NC(=O)[C@H](CC(=O)O)NC1=O)NC(=O)[C@H](CC(C)(C)C)NC(=O)[C@H](CC(=O)O)NC2=O (stereo partly drawn) [I-1484, Ac-PL3-Asp-Npg-B5-Asp-Asp-MePpzAsn-Ala-Phe-Leu-PyrS2-3Thi-BztA-Gln-NH2] | 30 nM | > 20000 nM | –

Compounds with a lower IC50 [1], results first:

Row | IC50 [1] | IC50 ([2]; absolute IC50) | IC50 [2] | SMILES
8 | 29 nM | – | > 20000 nM | CC(=O)N1CCC[C@]12CC=CCCCC1(CCCC=CCCCOC(=O)N3CC[C@@](C(=O)N[C@@H](Cc4ccsc4)C(=O)N[C@@H](Cc4csc5ccccc45)C(=O)N[C@@H](Cc4ccccc4)C(N)=O)(C3)NC(=O)[C@H](CC(C)C)NC(=O)[C@H](Cc3ccccc3)NC(=O)[C@H](C)NC(=O)[C@H](CCCCNC(C)C)NC(=O)[C@H](Cc3cccc(C(=O)O)c3)NC(=O)[C@H](CC(=O)O)NC1=O)NC(=O)[C@H](CC(C)(C)C)NC(=O)[C@H](CC(=O)O)NC2=O (stereo partly drawn) [I-1909, Ac-PL3-Asp-Npg-B5-Asp-3COOHF-iPrLys-Ala-Phe-Leu-PyrS2-3Thi-BztA-Phe-NH2]
9 | 20 nM | > 20000 nM | – | CC(=O)N1CCC[C@]12CC=CCCCC1(CCCC=CCCCOC(=O)N3CC[C@@](C(=O)N[C@@H](Cc4ccsc4)C(=O)N[C@@H](Cc4csc5ccccc45)C(=O)N[C@@H](CCC(N)=O)C(N)=O)(C3)NC(=O)[C@H](CCO)NC(=O)[C@H](Cc3ccccc3)NC(=O)[C@H](C)NC(=O)[C@H](C)NC(=O)[C@H](Cc3c[nH]cn3)NC(=O)[C@H](CC(=O)O)NC1=O)NC(=O)[C@H](CC(C)(C)C)NC(=O)[C@H](CC(=O)O)NC2=O (stereo partly drawn) [I-1793, Ac-PL3-Asp-Npg-B5-Asp-His-Ala-Ala-Phe-Hse-PyrS2-3Thi-BztA-Gln-NH2]
10 | 10 nM | 9800 nM | – | CC(=O)N1CCC[C@]12CC=CCCCC1(CCCC=CCCCOC(=O)N3CC[C@@](C(=O)N[C@@H](Cc4ccccc4Cl)C(=O)N[C@@H](Cc4csc5ccccc45)C(=O)N[C@@H](CC(=O)N4CCN(C)CC4)C(N)=O)(C3)NC(=O)[C@H]([C@@H](C)O)NC(=O)[C@H](Cc3ccccc3)NC(=O)[C@H](C)NC(=O)[C@H](C)NC(=O)[C@H](CN(CC(=O)O)CC(F)(F)F)NC(=O)[C@H](CC(=O)O)NC1=O)NC(=O)[C@H](CC(C)(C)C)NC(=O)[C@H](CC(=O)O)NC2=O (stereo partly drawn) [I-1611, Ac-PL3-Asp-Npg-B5-Asp-TfeGA-Ala-Ala-Phe-Thr-PyrS2-2C1F-BztA-MePpzAsn-NH2]
11 | 10 nM | 5200 nM | – | CC(=O)N1CCC[C@]12CC=CCCCC1(CCCC=CCCCOC(=O)N3CC[C@@](C(=O)N[C@@H](Cc4ccsc4)C(=O)N[C@@H](Cc4csc5ccccc45)C(=O)N[C@@H](CCC(N)=O)C(N)=O)(C3)NC(=O)[C@H](CC(C)C)NC(=O)[C@H](Cc3ccccc3)NC(=O)[C@H](C)NC(=O)[C@H](C)NC(=O)[C@H](CN(CCC(F)(F)F)CC(=O)O)NC(=O)[C@H](CC(=O)O)NC1=O)NC(=O)[C@H](CC(C)(C)C)NC(=O)[C@H](CC(=O)O)NC2=O (stereo partly drawn) [I-1633, Ac-PL3-Asp-Npg-B5-Asp-[Tfp]GA-Ala-Ala-Phe-Leu-PyrS2-3Thi-BztA-Gln-NH2]
